Experimental data reported in the supplement of paper PMC10307832.

Legend:
Test in all cases: relative viability (nuclei count vs DMSO), 5 days (fraction); higher = more cells survive
[1] = compound: O=C(NCCCNc1nc(Nc2cccc(NC(=O)N3CCCC3)c2)ncc1I)c1cccs1 [BX 795] + CC(=O)c1c(C)c2cnc(Nc3ccc(N4CCNCC4)cn3)nc2n(C2CCCC2)c1=O [Palbociclib] (partner 0.5 µM)
In short: (§1)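 Each reported value is a median over duplicate plates. It expresses relative viability: treated-well nuclei count divided by vehicle-well nuclei count. Lung cancer cell lines in 1536-well plates were dosed by pin tool a day after seeding, alone with one drug or with a fixed anchor-drug dose plus five library-drug doses (not always all listed) in √10 steps, and nuclei were counted after 5 days.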

[2] = compound: O=C(NCCCNc1nc(Nc2cccc(NC(=O)N3CCCC3)c2)ncc1I)c1cccs1 [BX 795] + C[C@]1(O)C[C@@H](c2nc(-c3ccc4ccc(-c5ccccc5)nc4c3)c3c(N)nccn32)C1 [Linsitinib] (partner 1 µM)
In short: as §1

[3] = compound: O=C(NCCCNc1nc(Nc2cccc(NC(=O)N3CCCC3)c2)ncc1I)c1cccs1 [BX 795] + Cc1cc(Nc2cc(N3CCN(C)CC3)nc(Sc3ccc(NC(=O)C4CC4)cc3)n2)n[nH]1 [Tozasertib] (partner 0.1 µM)
In short: as §1

[4] = compound: O=C(NCCCNc1nc(Nc2cccc(NC(=O)N3CCCC3)c2)ncc1I)c1cccs1 [BX 795] + Cc1nc(Nc2ncc(C(=O)Nc3c(C)cccc3Cl)s2)cc(N2CCN(CCO)CC2)n1 [Dasatinib] (partner 0.075 µM)
In short: as §1

[5] = compound: O=C(NCCCNc1nc(Nc2cccc(NC(=O)N3CCCC3)c2)ncc1I)c1cccs1 [BX 795] + Nc1ncn([C@H]2C[C@H](O)[C@@H](CO)O2)c(=O)n1 [Decitabine] (partner 2 µM)
In short: as §1

Cell Line	relative viability ([1]; first compound 0.04 µM)	relative viability ([1]; first compound 0.1265 µM)	relative viability ([1]; first compound 0.4 µM)	relative viability ([1]; first compound 1.265 µM)	relative viability ([2]; first compound 0.04 µM)	relative viability ([2]; first compound 0.1265 µM)	relative viability ([2]; first compound 0.4 µM)	relative viability ([2]; first compound 1.265 µM)	relative viability ([3]; first compound 0.04 µM)	relative viability ([3]; first compound 0.1265 µM)	relative viability ([3]; first compound 0.4 µM)	relative viability ([3]; first compound 1.265 µM)	relative viability ([4]; first compound 0.04 µM)	relative viability ([4]; first compound 0.1265 µM)	relative viability ([4]; first compound 0.4 µM)	relative viability ([4]; first compound 1.265 µM)	relative viability ([5]; first compound 0.04 µM)	relative viability ([5]; first compound 0.1265 µM)	relative viability ([5]; first compound 0.4 µM)	relative viability ([5]; first compound 1.265 µM)
HCC-366	0.477	0.362	0.289	0.415	0.469	0.727	0.257	0.3	0.228	0.0924	0.0936	0.0708	0.757	0.73	0.498	0.631	0.332	0.371	0.31	0.255
HCC-827	0.551	0.501	0.478	0.484	0.972	0.849	0.987	0.75	0.416	0.45	0.429	0.417	0.334	0.375	0.307	0.414	0.416	0.327	0.387	0.303
HOP-62	0.471	0.465	0.502	0.47	0.915	1.02	1.2	0.525	0.381	0.441	0.361	0.275	0.659	0.797	0.668	0.576	0.241	0.223	0.295	0.296
IA-LM	–	–	–	–	0.615	0.452	0.769	0.626	–	–	–	–	–	–	–	–	–	–	–	–
LC-2-ad	0.476	0.493	0.408	0.483	0.83	0.715	0.637	0.351	0.611	0.475	0.419	0.384	0.416	0.497	0.391	0.285	0.777	0.835	0.74	0.611
LCLC-97TM1	0.22	0.201	0.314	0.208	0.156	0.204	0.198	0.153	0.356	0.24	0.305	0.232	0.719	0.888	0.764	0.76	0.268	0.264	0.367	0.227
LCLC-103H	0.441	0.511	0.529	0.445	1.12	1.16	0.901	1.09	0.476	0.475	0.477	0.379	0.55	0.481	0.553	0.412	0.714	0.656	0.863	0.631
LK-2	0.83	0.862	0.635	0.559	0.518	0.396	0.484	0.393	0.164	0.185	0.16	0.175	0.35	0.201	0.291	0.304	0.447	0.266	0.294	0.271
LOU-NH91	0.5	0.478	0.558	0.5	0.925	0.956	0.802	0.94	0.699	0.609	0.525	0.568	0.63	0.662	0.583	0.564	0.818	0.791	0.803	0.798
LU99A	0.434	0.406	0.36	0.277	0.552	0.631	0.467	0.225	0.3	0.286	0.287	0.261	0.78	0.571	0.472	0.364	0.967	0.81	0.921	0.428
LXF-289	0.671	0.595	0.638	0.579	0.969	0.949	1.03	0.678	0.209	0.155	0.154	0.142	0.209	0.28	0.185	0.15	0.448	0.347	0.582	0.373
NCI-H596	–	–	–	–	1.09	1.25	1.16	1.03	0.963	0.906	1.03	0.699	0.626	0.587	0.561	0.591	1.05	0.982	1.1	1.08
NCI-H1650	0.394	0.328	0.319	0.289	–	–	–	–	0.548	0.425	0.377	0.25	0.317	0.276	0.291	0.258	0.571	0.471	0.548	0.644
NCI-H1792	0.724	0.633	0.643	0.613	0.559	0.673	0.461	0.424	–	–	–	–	0.792	0.764	0.821	0.664	0.546	–	0.588	0.408
NCI-H2170	0.364	0.395	0.394	0.381	–	–	–	–	0.724	0.731	0.74	0.712	0.594	0.517	0.476	0.64	0.542	0.47	0.48	0.443
NCI-H2228	1.07	0.787	0.974	0.658	1.25	0.643	0.662	0.474	0.283	0.247	0.303	0.217	0.568	0.594	0.388	0.32	–	–	–	–
NCI-H2342	0.599	0.518	0.47	0.498	–	–	–	–	0.579	0.471	0.507	0.46	0.307	0.319	0.287	0.312	0.87	0.686	0.823	0.641
SW 900	0.512	–	0.67	0.593	–	–	–	–	0.571	0.549	0.657	0.233	0.737	0.541	0.414	0.259	0.543	–	0.622	0.485
